Laboratory results reported in patent US20250122456A1, “MICRO-PHY[…] FOR IMMUNE RESPONSE MODELING” (priority 2023, published 2025).

System: gut-liver interaction with immune cells
Assay: donor-matched gut-liver interaction with immune cells challenged with Poly:IC
Format: cell-based, human
Conditions: intestinal challenge, mimicking viral infection, FIG. 12
Excerpt: A single-cell RNA sequencing characterization of 3 donor-matched blood, gut and liver tissue is shown at 1202. On top, T cell clustering per tissue is shown, including PBMCS (PB), liver (L), and gut lamina propria (LP) and intraepithelial space (IEL). On the bottom, a distribution of major T cell subtypes per tissue is shown including CD4 T cells, CD8 T cells, and gamma-delta T cells. […] The interacting system was challenged with Poly:IC mimicking viral infection. […] On the bottom, liver albumin production data compare the three conditions.

## Poly: IC
  inflammatory cytokines detected in common media: significant induction
